# Reference: ChEMBL document CHEMBL1201862, “PubChem BioAssay data set” (2004)
# Calls of active or inactive are those of the source.
# Assays:
# [1] = biological target: T1, Mannose-6-phosphate isomerase (Homo sapiens, UniProt P34949); experiment: PMI enzyme inhibitors, confirmation, biochemical, fluorescence intensity (AID 1535)
# T1 sequence (P34949 whole entry): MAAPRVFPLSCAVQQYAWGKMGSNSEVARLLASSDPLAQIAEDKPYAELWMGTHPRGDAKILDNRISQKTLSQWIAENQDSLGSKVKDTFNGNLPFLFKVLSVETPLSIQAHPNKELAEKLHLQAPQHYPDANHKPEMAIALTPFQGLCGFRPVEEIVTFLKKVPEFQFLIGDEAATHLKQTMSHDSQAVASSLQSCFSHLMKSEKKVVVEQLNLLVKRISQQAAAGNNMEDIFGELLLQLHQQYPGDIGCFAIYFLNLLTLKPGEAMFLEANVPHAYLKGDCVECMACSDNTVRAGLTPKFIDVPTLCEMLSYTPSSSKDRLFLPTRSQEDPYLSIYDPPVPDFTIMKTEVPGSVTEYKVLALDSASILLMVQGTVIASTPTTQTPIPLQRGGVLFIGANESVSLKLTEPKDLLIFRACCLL
# [2] = biological target: Phosphomannomutase 2 (Homo sapiens, UniProt O15305); experiment: Counter screen SAR assay for PMM2 inhibitors via a fluorescence intensity assay. [Related pubchem assays (depositor defined):AID1545, AID1574]
# [3] = biological target: T2, Orexin/Hypocretin receptor type 1 (Homo sapiens, UniProt O43613); experiment: Homogeneous Time Resolved Fluorescence (HTRF)-based cell-based high throughput dose response assay for antagonists of the orexin 1 receptor (OX1R; HCRTR1). [Related pubchem assays (depositor defined):AID434989, AID435008, AID463079, AID485270, AID492963, AID492964, AID492965, AID493232, AID504717, AID504718]; format: functional
# T2 sequence (O43613 whole entry): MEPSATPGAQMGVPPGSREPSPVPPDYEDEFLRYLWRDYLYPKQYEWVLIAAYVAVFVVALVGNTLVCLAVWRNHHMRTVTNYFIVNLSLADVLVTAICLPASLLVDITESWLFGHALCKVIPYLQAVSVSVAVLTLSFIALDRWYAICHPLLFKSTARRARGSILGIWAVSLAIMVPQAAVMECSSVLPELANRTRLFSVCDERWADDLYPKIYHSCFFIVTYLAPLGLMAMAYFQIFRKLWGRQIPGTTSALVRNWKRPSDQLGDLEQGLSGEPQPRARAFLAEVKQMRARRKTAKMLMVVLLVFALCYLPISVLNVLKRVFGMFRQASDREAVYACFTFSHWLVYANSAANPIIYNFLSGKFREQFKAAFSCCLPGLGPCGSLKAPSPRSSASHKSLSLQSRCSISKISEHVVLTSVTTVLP
# [4] = biological target: T2, Orexin/Hypocretin receptor type 1; experiment: Fluorescence-based cell-based high throughput dose response assay for antagonists of the orexin 1 receptor (OX1R; HCRTR1). [Related pubchem assays (depositor defined):AID434989, AID435008, AID463079, AID485270, AID492963, AID492964, AID492965, AID493232, AID504717, AID504718]; format: functional
# [5] = tested on: CHO-K1; experiment: (§1) Counterscreen for antagonists of the orexin 1 receptor (OX1R; HCRTR1): Homogeneous time resolved fluorescence (HTRF)-based cell-based dose response assay to identify antagonists of the parental CHO-K1 cell line. [Related pubchem assays (depositor defined):AID434989, AID435008, AID463079, AID485270, AID492963, AID492964, AID492965, AID493232, AID504699, AID504701]; format: functional; settings: Cricetulus griseus
# [6] = as §1, with “Fluorescence-based” for “Homogeneous time resolved fluorescence (HTRF)-based”, “cell-based high throughput” for “cell-based”, “CHO” for “CHO-K1”; format: functional
# [7] = biological target: T3, Heat shock factor protein 1 (Mus musculus, UniProt P38532); experiment: inhibition of MG132-induced HSE-luciferase signal, confirmation, cell-based, NIH3T3, luminescence, dose retest (AID 2382); format: functional;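 also: NIH3T3 fibroblasts with HSF1-driven luciferase reporter stressed by proteasome inhibitor MG132; luminescence from HSF1-driven luciferase expression after 8 hours of MG132 stress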
# T3 sequence (P38532 whole entry): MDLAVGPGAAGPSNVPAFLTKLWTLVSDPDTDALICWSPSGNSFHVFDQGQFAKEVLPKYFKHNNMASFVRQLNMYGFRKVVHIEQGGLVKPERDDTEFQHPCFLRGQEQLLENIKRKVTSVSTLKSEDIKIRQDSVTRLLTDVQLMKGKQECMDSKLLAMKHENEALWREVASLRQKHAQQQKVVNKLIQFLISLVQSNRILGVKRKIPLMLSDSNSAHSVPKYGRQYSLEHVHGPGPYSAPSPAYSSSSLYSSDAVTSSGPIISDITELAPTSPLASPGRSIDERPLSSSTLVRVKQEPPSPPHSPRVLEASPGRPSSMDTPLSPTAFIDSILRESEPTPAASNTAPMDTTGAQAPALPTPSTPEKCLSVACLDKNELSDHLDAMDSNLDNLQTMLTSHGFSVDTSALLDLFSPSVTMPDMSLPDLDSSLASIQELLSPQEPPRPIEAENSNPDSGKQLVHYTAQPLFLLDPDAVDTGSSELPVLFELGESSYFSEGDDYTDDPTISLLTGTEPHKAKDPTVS
# [8] = tested on: Streptococcus; experiment: Group A Streptococcus viability loss, dose response, counter-screen for streptokinase expression inhibitor project, luminescence, BacTiterGlo (AID 1915); format: functional, organism-based;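 also: potency for reduction of bacterial viability or growth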
# [9] = tested on: Streptococcus sp. 'group A'; experiment: growth inhibition of control SK(-) GAS strain, dose response, counter-screen for streptokinase expression inhibitor project, luminescence, kanamycin, BacTiterGlo, confirmation (AID 1900); format: functional, organism-based
# [10] = tested on: Escherichia coli; experiment: microbe, parasite or virus in culture
# [11] = biological target: T4, Streptokinase A (Streptococcus pyogenes serotype M1, UniProt P10520); experiment: S. pyogenes streptokinase expression inhibitors, potency, dose response, plasminogen activation absorbance, OD405 (AID 1914); format: functional, Streptococcus pyogenes M1 GAS;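 also: secreted streptokinase activity via plasminogen activation per viability signal from cell pellet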
# T4 sequence (P10520 whole entry): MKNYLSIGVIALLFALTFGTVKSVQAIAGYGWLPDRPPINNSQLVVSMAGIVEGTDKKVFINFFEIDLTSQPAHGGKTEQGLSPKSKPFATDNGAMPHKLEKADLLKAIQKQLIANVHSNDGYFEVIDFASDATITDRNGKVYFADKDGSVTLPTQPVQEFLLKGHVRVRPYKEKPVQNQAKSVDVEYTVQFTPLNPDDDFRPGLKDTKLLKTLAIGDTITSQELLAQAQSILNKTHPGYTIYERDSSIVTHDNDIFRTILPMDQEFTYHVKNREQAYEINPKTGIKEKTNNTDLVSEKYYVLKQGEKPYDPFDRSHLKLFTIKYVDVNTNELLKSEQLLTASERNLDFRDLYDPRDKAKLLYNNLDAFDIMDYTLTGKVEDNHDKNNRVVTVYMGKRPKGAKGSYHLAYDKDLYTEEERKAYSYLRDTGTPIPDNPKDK
# [12] = biological target: Lysine-specific demethylase 4A (Homo sapiens, UniProt O75164); experiment: JMJD2A histone demethylase inhibitors, dose response, selectivity assay for GASC-1 inhibitor project, biochemical, DELFIA europium, cherry-picked samples (AID 488840)
# [13] = biological target: Eukaryotic translation initiation factor 4E (Mus musculus, UniProt P63073); experiment: eIF4E–eIF4G protein interaction inhibitors, dose response, biochemical, TR-FRET (AID 855); format: functional;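 also: potency for disrupting eIF4E binding to eIF4GI seen as loss of FRET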
# [14] = biological target: T5, Voltage-gated N-type calcium channel alpha-1B subunit/Amyloid beta A4 precursor protein-binding family A member 1 (Homo sapiens, UniProt Q00975+Q02410); format: protein assay
# [15] = biological target: T5, Voltage-gated N-type calcium channel alpha-1B subunit/Amyloid beta A4 precursor protein-binding family A member 1; format: protein assay; remark: listed apart in the source
# [16] = biological target: Cytochrome P450 3A4 (Homo sapiens, UniProt P08684); settings: Potency;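 also: confirmatory qHTS run detecting inhibitors and substrates of CYP3A4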
# [17] = biological target: Voltage-gated inwardly rectifying potassium channel KCNH2 (Homo sapiens, UniProt Q12809); settings: Potency;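 also: confirmatory quantitative high-throughput screen measuring inhibition of hERG channel activity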
# [18] = biological target: T6, Tyrosine-protein phosphatase non-receptor type 22 (Homo sapiens, UniProt Q9Y2R2); format: functional
# T6 sequence (Q9Y2R2 whole entry): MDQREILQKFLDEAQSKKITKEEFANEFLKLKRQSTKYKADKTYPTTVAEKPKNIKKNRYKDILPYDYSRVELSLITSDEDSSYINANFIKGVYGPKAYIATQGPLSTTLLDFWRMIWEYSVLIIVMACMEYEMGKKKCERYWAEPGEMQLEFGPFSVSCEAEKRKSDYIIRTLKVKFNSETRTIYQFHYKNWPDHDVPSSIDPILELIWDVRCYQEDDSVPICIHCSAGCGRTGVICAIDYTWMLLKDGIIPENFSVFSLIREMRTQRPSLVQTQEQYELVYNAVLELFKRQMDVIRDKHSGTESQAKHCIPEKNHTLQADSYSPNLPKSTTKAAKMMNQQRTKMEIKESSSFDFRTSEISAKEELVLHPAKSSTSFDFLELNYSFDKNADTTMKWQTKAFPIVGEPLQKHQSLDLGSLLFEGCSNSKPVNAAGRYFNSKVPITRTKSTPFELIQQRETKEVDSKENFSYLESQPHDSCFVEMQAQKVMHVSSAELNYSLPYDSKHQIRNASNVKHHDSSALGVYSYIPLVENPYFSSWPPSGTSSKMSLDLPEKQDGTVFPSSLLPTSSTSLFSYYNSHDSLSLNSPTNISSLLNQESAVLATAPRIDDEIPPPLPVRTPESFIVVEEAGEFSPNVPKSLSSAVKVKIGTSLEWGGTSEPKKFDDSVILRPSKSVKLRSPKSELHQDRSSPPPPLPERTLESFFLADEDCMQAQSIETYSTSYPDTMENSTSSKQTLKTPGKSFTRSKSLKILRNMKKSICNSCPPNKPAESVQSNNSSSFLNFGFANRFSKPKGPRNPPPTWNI
# [19] = biological target: T7, Tyrosine-protein phosphatase non-receptor type 7 (Homo sapiens, UniProt P35236); format: functional
# T7 sequence (P35236 whole entry): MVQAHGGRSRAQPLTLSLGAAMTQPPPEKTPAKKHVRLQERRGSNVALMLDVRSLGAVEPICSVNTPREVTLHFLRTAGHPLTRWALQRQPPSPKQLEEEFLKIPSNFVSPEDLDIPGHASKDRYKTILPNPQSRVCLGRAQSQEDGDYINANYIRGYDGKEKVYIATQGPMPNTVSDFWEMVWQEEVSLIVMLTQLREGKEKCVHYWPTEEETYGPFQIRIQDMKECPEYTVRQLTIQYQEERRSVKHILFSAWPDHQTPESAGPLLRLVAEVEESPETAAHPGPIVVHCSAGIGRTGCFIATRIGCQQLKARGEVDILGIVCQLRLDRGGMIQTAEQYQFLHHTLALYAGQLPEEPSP
# [20] = biological target: T6, Tyrosine-protein phosphatase non-receptor type 22; format: functional; remark: listed apart in the source
# Sequence of Phosphomannomutase 2 (O15305 whole entry): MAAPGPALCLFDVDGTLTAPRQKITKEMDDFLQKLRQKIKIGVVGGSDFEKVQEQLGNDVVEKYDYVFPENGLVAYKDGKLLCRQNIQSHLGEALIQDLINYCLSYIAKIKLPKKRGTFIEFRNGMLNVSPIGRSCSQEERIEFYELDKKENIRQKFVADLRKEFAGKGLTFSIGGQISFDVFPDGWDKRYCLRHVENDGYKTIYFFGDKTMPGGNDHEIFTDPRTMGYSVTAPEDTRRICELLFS
# Sequence of Voltage-gated inwardly rectifying potassium channel KCNH2 (Q12809 whole entry): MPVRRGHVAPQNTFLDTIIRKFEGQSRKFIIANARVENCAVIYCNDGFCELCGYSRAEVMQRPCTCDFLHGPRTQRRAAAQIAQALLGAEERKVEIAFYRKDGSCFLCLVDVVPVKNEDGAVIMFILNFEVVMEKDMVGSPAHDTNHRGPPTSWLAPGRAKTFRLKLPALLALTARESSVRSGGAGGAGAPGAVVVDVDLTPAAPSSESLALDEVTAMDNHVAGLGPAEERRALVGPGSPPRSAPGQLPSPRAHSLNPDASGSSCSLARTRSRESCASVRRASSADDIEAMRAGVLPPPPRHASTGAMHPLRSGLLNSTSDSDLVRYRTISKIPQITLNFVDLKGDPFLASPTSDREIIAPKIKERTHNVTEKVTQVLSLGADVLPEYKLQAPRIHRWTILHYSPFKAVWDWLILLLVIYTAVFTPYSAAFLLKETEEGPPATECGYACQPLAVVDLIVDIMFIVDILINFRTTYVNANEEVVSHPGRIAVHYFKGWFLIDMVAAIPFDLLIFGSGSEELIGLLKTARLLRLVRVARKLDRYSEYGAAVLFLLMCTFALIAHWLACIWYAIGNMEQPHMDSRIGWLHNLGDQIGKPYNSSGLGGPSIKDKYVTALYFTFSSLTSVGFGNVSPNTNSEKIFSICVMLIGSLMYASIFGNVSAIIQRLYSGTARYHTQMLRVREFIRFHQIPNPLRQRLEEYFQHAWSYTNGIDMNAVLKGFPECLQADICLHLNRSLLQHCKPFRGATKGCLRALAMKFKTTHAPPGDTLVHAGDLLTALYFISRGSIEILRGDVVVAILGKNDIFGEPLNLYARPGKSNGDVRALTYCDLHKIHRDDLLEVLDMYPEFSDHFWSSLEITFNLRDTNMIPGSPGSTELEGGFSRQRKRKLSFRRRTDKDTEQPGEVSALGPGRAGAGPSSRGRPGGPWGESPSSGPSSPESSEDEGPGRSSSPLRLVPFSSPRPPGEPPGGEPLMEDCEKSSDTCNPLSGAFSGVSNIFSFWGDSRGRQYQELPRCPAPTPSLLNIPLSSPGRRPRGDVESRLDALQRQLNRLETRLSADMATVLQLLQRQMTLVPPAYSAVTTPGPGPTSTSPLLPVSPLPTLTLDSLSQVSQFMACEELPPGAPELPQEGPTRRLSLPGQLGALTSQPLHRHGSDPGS
# T5 sequence (Q00975 whole entry): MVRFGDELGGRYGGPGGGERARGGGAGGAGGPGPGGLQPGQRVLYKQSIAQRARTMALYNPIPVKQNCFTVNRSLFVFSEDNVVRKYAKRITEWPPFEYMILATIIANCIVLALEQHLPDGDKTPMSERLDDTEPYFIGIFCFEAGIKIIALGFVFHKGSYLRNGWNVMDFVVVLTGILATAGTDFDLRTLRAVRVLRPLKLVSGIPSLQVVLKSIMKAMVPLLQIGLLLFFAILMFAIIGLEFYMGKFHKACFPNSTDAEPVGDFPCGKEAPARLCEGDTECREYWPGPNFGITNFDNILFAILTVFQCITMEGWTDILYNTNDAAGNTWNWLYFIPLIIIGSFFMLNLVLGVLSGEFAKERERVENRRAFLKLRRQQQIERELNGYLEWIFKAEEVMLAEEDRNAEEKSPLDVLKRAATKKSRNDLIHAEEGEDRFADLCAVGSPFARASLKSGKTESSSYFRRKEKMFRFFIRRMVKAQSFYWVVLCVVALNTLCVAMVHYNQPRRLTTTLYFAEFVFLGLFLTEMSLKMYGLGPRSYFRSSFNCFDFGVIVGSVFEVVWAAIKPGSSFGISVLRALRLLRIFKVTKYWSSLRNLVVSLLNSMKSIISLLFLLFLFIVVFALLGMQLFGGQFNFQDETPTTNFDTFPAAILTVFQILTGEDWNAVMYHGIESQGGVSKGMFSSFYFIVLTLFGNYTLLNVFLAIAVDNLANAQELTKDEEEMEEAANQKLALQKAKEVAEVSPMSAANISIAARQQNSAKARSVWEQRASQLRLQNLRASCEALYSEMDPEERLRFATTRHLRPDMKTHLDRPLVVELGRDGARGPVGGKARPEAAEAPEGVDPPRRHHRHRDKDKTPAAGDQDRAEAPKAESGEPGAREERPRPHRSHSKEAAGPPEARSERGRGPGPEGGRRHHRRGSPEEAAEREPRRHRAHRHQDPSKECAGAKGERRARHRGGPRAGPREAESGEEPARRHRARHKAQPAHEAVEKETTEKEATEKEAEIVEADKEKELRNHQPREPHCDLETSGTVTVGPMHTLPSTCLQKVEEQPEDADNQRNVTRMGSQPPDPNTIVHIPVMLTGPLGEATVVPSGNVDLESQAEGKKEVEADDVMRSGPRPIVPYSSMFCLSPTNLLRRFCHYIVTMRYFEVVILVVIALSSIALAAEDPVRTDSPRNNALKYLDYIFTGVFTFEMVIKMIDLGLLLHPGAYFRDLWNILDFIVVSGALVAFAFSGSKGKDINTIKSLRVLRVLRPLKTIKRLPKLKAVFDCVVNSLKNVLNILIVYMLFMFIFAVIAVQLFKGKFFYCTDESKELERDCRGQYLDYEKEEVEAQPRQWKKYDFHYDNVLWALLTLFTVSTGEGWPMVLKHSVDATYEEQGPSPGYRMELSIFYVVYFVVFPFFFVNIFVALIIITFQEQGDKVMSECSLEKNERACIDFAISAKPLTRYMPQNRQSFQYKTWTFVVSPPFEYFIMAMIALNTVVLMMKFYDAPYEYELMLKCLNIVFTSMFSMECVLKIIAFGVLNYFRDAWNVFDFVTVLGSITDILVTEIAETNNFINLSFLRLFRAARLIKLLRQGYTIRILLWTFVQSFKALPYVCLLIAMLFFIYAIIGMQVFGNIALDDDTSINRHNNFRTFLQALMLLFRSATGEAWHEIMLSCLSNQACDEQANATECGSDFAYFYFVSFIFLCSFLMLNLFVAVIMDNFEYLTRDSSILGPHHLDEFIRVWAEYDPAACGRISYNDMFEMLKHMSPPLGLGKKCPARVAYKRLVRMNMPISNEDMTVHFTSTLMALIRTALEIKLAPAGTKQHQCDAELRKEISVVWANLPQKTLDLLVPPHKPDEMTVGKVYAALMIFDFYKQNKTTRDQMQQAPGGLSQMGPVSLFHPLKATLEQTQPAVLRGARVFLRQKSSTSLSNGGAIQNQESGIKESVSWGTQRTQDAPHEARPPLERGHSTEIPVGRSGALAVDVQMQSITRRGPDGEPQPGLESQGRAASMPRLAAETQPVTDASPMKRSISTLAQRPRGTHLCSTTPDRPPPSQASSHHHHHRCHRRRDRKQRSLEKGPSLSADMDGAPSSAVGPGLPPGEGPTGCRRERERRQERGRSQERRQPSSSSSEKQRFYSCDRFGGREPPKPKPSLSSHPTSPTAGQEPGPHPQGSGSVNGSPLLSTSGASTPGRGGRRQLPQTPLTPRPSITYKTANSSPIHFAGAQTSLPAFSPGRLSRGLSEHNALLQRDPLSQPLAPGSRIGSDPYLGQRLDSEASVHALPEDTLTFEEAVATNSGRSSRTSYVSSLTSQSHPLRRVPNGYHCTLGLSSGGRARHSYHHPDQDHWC
# T5 sequence (Q02410 whole entry): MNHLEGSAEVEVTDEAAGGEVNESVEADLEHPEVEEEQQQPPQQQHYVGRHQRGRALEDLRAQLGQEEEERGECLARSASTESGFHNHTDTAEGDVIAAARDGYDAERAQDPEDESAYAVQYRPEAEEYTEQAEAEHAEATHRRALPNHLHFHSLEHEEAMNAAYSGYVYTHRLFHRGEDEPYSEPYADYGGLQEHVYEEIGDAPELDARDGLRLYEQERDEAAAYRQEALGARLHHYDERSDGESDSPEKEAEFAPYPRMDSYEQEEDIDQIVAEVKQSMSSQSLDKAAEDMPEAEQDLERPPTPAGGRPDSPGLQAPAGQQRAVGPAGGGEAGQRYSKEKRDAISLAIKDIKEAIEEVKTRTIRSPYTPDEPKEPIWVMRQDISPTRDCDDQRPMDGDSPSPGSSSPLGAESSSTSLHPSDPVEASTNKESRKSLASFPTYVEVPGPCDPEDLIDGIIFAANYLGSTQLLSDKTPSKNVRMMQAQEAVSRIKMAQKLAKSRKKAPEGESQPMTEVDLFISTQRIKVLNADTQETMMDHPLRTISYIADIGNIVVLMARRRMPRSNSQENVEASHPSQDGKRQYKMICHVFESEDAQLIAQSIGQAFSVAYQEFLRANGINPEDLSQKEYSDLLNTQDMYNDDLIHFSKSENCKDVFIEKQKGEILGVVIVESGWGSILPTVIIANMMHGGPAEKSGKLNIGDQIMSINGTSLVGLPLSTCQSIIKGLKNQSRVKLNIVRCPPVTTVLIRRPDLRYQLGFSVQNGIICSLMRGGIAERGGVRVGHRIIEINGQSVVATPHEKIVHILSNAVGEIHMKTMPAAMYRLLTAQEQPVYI
# Sequence of Eukaryotic translation initiation factor 4E (P63073 whole entry): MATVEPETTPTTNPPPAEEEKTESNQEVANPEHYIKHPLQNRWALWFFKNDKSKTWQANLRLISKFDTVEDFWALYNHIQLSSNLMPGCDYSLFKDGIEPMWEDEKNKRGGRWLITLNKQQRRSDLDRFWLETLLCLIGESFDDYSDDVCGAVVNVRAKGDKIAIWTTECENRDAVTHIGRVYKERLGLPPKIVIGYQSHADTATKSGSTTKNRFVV
smiles,measurement,setting,value
O=[N+]([O-])c1ccc(/N=c2\ssnc2Cl)cc1,IC50,[1],23 µM (active)
same,IC50,[2],> 100 µM (inactive)
CCOC(=O)C1=C(COC(=O)c2ccc3ccccc3c2O)NC(=O)NC1C (stereo not drawn),IC50,[3],1.62 µM (active)
same,IC50,[4],2.35 µM (active)
same,IC50,[5],33.6 µM (inactive)
same,IC50,[6],37.2 µM (inactive)
N#Cc1nc(-c2ccccc2Cl)oc1N1CCN(C(=O)c2ccco2)CC1,EC50,[7],> 195 µM (not active)
same,EC50,[8],> 150 µM (not active)
same,EC50,[9],> 150 µM (not active)
same,AC50,[10],23.9 µM (active)
same,EC50,[11],> 150 µM (not active)
Cc1ccccc1Cn1c2ccccc2c2cnnc(O)c21,AC50,[12],30.2 µM (active)
Clc1nss/c1=N\c1ccccc1,IC50,[1],15.7 µM (active)
same,IC50,[13],50 µM (inactive)
same,IC50,[14],8.07 µM (active)
same,IC50,[15],8.44 µM (active)
same,IC50,[2],> 100 µM (inactive)
CC(C)(c1ccccc1)c1ccc(O)cc1,AC50,[16],20 µM (inconclusive)
same,AC50,[17],28.2 µM (inconclusive)
C/C(=N\NC(=O)c1c(-c2ccccc2Cl)noc1C)c1cccc(NC(=O)C(C)C)c1,IC50,[18],> 79.4 µM (inactive)
same,IC50,[19],> 79.4 µM (inactive)
same,IC50,[20],> 79.4 µM (inactive)
O=[N+]([O-])c1cc([N+](=O)[O-])c2ccccc2c1,AC50,[17],15.8 µM (inconclusive)
